Laboratory results taken from ChEMBL document CHEMBL4431387, “Anti-adipogenic and anti-diabetic effects of cis-3',4'-diisovalerylkhellactone isolated from Peucedanum japonicum Thunb leaves in vitro” (Bioorg Med Chem Lett, 2016).
The source made the active and inactive calls. The rule behind the calls is not given here.

Key:
3T3-L1 [1] = experiment: Downregulation of C/EBPalpha protein expression in mouse 3T3L1 cells by SDS-PAGE analysis; assay type: functional, cell-based
3T3-L1 [2] = experiment: Downregulation of SREBP-1c mRNA expression in mouse 3T3L1 cells by qRT-PCR analysis; assay type: functional, cell-based
3T3-L1 [3] = experiment: Downregulation of PPARgamma protein expression in mouse 3T3L1 cells by SDS-PAGE analysis; assay type: functional, cell-based
3T3-L1 [4] = experiment: Downregulation of C/EBPalpha mRNA expression in mouse 3T3L1 cells by qRT-PCR analysis; assay type: functional, cell-based
3T3-L1 [5] = experiment: Induction of glucose uptake in differentiated mouse 3T3L1 cells at 50 uM preincubated for 20 mins followed by 2-deoxyglucose addition measured after 20 mins by fluorescence assay relative to control; assay type: functional
[6] = target: Alpha glucosidase (Homo sapiens) (UniProt O43451+P10253+P14410+Q2M2H8); experiment: Inhibition of alpha-glucosidase (unknown origin) using […]-alpha-D-glucopyranoside as substrate at 10 to 50 uM preincubated for 10 mins followed by substrate addition measured after 5 mins; assay type: protein assay
3T3-L1 [7] = experiment: Antiadipogenic activity in mouse 3T3L1 cells assessed as suppression of adipocyte differentiation after 8 days by oil red o-staining based spectrophotometric analysis; assay type: functional, cell-based
3T3-L1 [8] = experiment: Antiadipogenic activity in mouse 3T3L1 cells assessed as suppression of adipocyte differentiation at 30 uM after 8 days by oil red o-staining based spectrophotometric analysis; assay type: functional
3T3-L1 [9] = experiment: Antiadipogenic activity in mouse 3T3L1 cells assessed as suppression of adipocyte differentiation at 50 uM after 8 days by oil red o-staining based spectrophotometric analysis; assay type: functional
[10] = target: T1, 5'-AMP-activated protein kinase (Mus musculus) (UniProt Q5EG47+Q8BRK8+Q6PAM0+O54950+Q91WG5+Q9R078+Q8BGM7); experiment: Induction of AMPK phosphorylation in mouse 3T3L1 cells at 30 uM by SDS-PAGE analysis; assay type: cell-based; settings: 3T3-L1
[11] = target: T1, 5'-AMP-activated protein kinase (Mus musculus); experiment: Induction of AMPK phosphorylation in mouse 3T3L1 cells at 50 uM by SDS-PAGE analysis; assay type: cell-based; settings: 3T3-L1
3T3-L1 [12] = experiment: Downregulation of SREBP-1c protein expression in mouse 3T3L1 cells by SDS-PAGE analysis; assay type: functional, cell-based
3T3-L1 [13] = experiment: Cytotoxicity against mouse 3T3L1 cells assessed as reduction in cell viability at =<50 uM after 48 hrs by SRB assay; assay type: cell-based; settings: 3t3-l1, 48 h
3T3-L1 [14] = experiment: Cytotoxicity against mouse 3T3L1 cells assessed as reduction in cell viability at 10 to 50 uM after 48 hrs by SRB assay; assay type: cell-based; settings: 3t3-l1, 48 h
3T3-L1 [15] = experiment: Antiadipogenic activity in differentiated mouse 3T3L1 cells assessed as reduction in triglyceride levels at 30 uM after 8 days by oil red o-staining based spectrophotometric analysis relative to control; assay type: functional; set-up: scale not given: the % may be the effect or the level left
3T3-L1 [16] = experiment: Antiadipogenic activity in differentiated mouse 3T3L1 cells assessed as reduction in triglyceride levels at 50 uM after 8 days by oil red o-staining based spectrophotometric analysis relative to control; assay type: functional; set-up: scale not given: the % may be the effect or the level left
3T3-L1 [17] = experiment: Induction of glucose uptake in differentiated mouse 3T3L1 cells at 30 uM preincubated for 20 mins followed by 2-deoxyglucose addition measured after 20 mins by fluorescence assay relative to control; assay type: functional
3T3-L1 [18] = experiment: Antiadipogenic activity in differentiated mouse 3T3L1 cells assessed as reduction in triglyceride levels at 20 uM after 8 days by oil red o-staining based spectrophotometric analysis relative to control; assay type: functional; set-up: scale not given: the % may be the effect or the level left
3T3-L1 [19] = experiment: Downregulation of PPARgamma mRNA expression in mouse 3T3L1 cells by qRT-PCR analysis; assay type: functional, cell-based
3T3-L1 [20] = experiment: Antiadipogenic activity in mouse 3T3L1 cells assessed as suppression of adipocyte differentiation at 20 uM after 8 days by oil red o-staining based spectrophotometric analysis; assay type: functional

Compound: CC(C)CC(=O)O[C@@H]1c2c(ccc3ccc(=O)oc23)OC(C)(C)[C@@H]1OC(=O)CC(C)C (relative stereo)
- Activity (3T3-L1 [1]): Dose-dependent effect
- Activity (3T3-L1 [2]): Dose-dependent effect
- Activity (3T3-L1 [3]): Dose-dependent effect
- Activity (3T3-L1 [4]): Dose-dependent effect
- Activity (3T3-L1 [5]): 57%
- inhibition [6]: Active
- Activity (3T3-L1 [7]): Active
- Activity (3T3-L1 [8]): 71%
- Activity (3T3-L1 [9]): 80%
- Activity [10]: 72%
- Activity [11]: 103%
- Activity (3T3-L1 [12]): Dose-dependent effect
- Activity (3T3-L1 [13]): Non-Toxic
- Activity (3T3-L1 [14]): Non-Toxic
- Activity (3T3-L1 [15]): 67%
- Activity (3T3-L1 [16]): 65%
- Activity (3T3-L1 [17]): 43%
- Activity (3T3-L1 [18]): 44%
- Activity (3T3-L1 [19]): Dose-dependent effect
- Activity (3T3-L1 [20]): 33%
